Results from patent US20110136151A1, “ASSAYS FOR DIAGNOSING AND EVALUATING TREATMENT OPTIONS FOR POMPE DISEASE” (AMICUS THERAPEUTICS, INC., priority 2008, published 2011).

How the values were obtained:
[1] = tested on: acid α-glucosidase (GAA); test: Ex vivo GAA enhancement assay in Pompe patient-derived lymphoblast cell lines treated with DNJ (4-MU-alpha-Glc lysate activity); assay type: cell-based, human; settings: five days
Description: Lymphoblast cell lines were derived from 26 patients and treated with DNJ (0, 30, 100 and 300 μM) for five days. Lymphoblastoid cell lines (LCLs) are leukocyte cultures (primarily B cells) that have been transformed with the Epstein-Barr Virus (EBV) to produce proliferative suspension cultures. Leukocyte cultures were prepared as described in Example 2, and transformed with the EBV to establish the lymphoblast cells. Because well established LCLs can be very fast-growing (even those with genetic and metabolic disorders), their density must be carefully controlled to prevent overcrowding over an extended period. The following protocol details cell seeding density, treatment with a test compound (i.e. DNJ) treatment compound washout, lysing, and assaying of LCLs for the measurement of acid α-glucoside (GAA) with the test compound.
• 1. All cell culture work was performed in a BLII Bio-safety cabinet using sterile techniques. LCL culture was expanded to a T75 by transferring 7e^6-1e^7 cells total to a T75 and add 40 ml 37° C. complete growth media. • 2. Optimal LCL cultures were selected in T75 flasks based on cell density and viability. A cell count was performed on these cultures. Usually a cell density of 1e^6 cells/ml maintains LCLs at the highest viability (90-98% viable). Cells densities higher than 1e^6 cells/ml drastically reduce the overall viability in the culture. • 3. A sterile 50 ml conical centrifuge tube was used to prepare a cell suspension in the appropriate amount of complete growth media to obtain a final cell density of approximately 2.0×10^5 cells/ml at a volume of at least 20 ml. (For example, if the original culture contains 1e^6 cells/ml, 16 ml media should be added to 4 ml of the cell suspension in the staging tube to create a density of 2e^5 cells/ml in a volume of 20 ml.). Cell suspensions were dispensed into four labeled T25 flasks at 5 ml each total volume. This process is repeated for each LCL to be processed. All flasks were placed in a humidified 5% CO2 37° C. incubator overnight. The original T75 cultures can be expanded and returned to the same incubator, if necessary. 5. Treatment with Test Compound • 1. Treatment of the cells with the DNJ test compound was performed 24 hours after the cells were seeded into T25 flasks. • 2. 5 ml of each treatment concentration is required for each cell line. Cell lines were treated with test compound over a concentration range of 0, x, 3x, and 10x test compound. • 3. A 2x stock of test compound solution was prepared in sterile 15 ml or 50 ml centrifuge tubes for each condition and 5 ml solution was added to 5 ml pre-incubated culture. Stock concentrations of 0, 60, 200, and 600 μM DNJ were made; when added to the flasks, the final concentrations were 0, 30, 100, and 300 μM DNJ. • 4. Each set of flasks were marked with the appropriate treatment concentrations, and 5 ml from the corresponding stock suspension were added to each flask. All flasks were returned to the incubator for 5 days.
• 1. After five days (120 hours) of treatment, 100% of the media was exchanged in the cell suspension with compound-free complete media in the following manner; • 2. The contents of each T25 was transferred to a sterile 15 ml conical centrifuge tube that had been pre-numbered to maintain order of concentration range. • 3. After each set was transferred, each T25 was washed with 5 ml blank RPMI 1640 (no phenol red). • 4. The tubes were centrifuged at 21° C. for 10 min at 600 g. During the spin, the blank RPMI was removed from the flasks by aspiration, maintaining sterility. • 5. Following the centrifugation, the supernatant was removed from the tubes by aspiration and the pellets were resuspended in 10 ml complete media. The cell suspensions were transferred back to their respective flasksAll flasks were returned to the 5% CO2 37° C. incubator overnight.

[2] = target: T1, GAA (Mus musculus, UniProt P70699); test: GAA levels after longer treatment of wild type mice; assay type: in vivo; settings: treatment 4-13 weeks
T1 construct: treatment of wild type mice and cynomolgus monkeys for longer periods of time; from tissue; host or cells: wild type mice

[3] = tested on: GAA; test: GAA levels after longer treatment of cynomolgus monkeys; assay type: in vivo; settings: treatment 4-13 weeks
[4] = 24/26 patient lymphoblast cell lines, DNJ 30-300 μM
[5] = patient cell lines with at least one missense mutation
[6] = patient cell lines with one copy of IVS1 13T>G and one copy of a non-missense null mutation

T1 sequence (P70699 70-953): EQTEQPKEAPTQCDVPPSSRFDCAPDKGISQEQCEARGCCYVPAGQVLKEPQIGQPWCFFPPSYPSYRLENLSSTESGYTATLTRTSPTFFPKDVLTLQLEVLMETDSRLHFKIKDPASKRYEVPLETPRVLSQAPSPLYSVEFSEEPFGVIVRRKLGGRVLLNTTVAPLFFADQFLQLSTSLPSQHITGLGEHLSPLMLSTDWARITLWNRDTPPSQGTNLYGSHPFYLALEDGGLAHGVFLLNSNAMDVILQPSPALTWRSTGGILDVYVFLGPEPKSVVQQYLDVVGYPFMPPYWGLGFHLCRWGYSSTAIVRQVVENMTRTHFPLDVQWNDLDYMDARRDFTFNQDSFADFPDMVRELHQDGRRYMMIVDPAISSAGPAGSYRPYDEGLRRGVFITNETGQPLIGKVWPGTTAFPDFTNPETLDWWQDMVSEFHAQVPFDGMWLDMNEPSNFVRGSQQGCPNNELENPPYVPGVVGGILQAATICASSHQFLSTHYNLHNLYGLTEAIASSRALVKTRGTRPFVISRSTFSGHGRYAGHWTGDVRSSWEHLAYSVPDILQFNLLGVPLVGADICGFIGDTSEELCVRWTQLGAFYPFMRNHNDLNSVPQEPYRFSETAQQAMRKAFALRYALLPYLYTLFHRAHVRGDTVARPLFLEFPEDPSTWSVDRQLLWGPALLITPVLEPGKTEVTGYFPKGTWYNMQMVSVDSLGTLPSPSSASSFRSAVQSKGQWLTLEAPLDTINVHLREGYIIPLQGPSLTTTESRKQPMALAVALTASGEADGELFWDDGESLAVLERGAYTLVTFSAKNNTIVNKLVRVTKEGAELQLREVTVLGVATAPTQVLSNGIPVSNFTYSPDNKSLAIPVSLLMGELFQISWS

SMILES: OC[C@H]1NCC(O)[C@@H](O)C1O (stereo partly drawn) [DNJ, 1-deoxynojirimycin]
- increase in GAA levels, mean [1, 4]: 93%
- increase in GAA levels, range [1, 4]: 7-620%
- dose-dependent increase in GAA levels, mean [1, 5]: 219%
- dose-dependent increase in GAA levels, range [1, 5]: 7-620%
- increase in GAA levels, mean [1, 6]: 22%
- increase in GAA levels, range [1, 6]: 7-51%
- patient cell lines with dose-dependent increase in GAA levels ([1]; patient-derived lymphoblasts, DNJ 0, 30, 100 and 300 μM): 24/26
- increase in GAA levels [2]: ≥ 2 fold
- increase in GAA levels [3]: ≥ 2 fold
